ChEMBL document CHEMBL4619812, “Discovery of Potent and Orally Available Bicyclo[1.1.1]pentane-Derived Indoleamine-2,3-dioxygenase 1 (IDO1) Inhibitors” (ACS Med Chem Lett, 2020)

How the values were obtained:
[1] = Apparent permeability in MDCK2 cells; format: ADME, cell-based, Canis lupus familiaris, MDCK-II; conditions: dog, MDCK
[2] = Unbound clearance in rat; format: ADME; conditions: in vivo
[3] = Oral bioavailability in rat; format: ADME, organism-based; conditions: in vivo
[4] = Unbound intrinsic clearance in human hepatocytes; format: ADME, cell-based, Hepatocyte
[5] = biological target: Tryptophan 2,3-dioxygenase (Homo sapiens, UniProt P48775); test: Inhibition of TDO in human SW48 cells using L-tryptophan as substrate incubated for 48 hrs by fluorescent microplate reader assay; format: cell-based
[6] = Clearance in rat; format: ADME; conditions: in vivo
[7] = Elimination half life in rat; format: ADME; conditions: in vivo, read-out: beta t1/2 (converted)
[8] = Unbound intrinsic clearance in rat hepatocytes; format: ADME, cell-based, Hepatocyte
[9] = Oral bioavailability in dog; format: ADME, organism-based, Canis lupus familiaris; conditions: in vivo
[10] = Unbound intrinsic clearance in dog hepatocytes; format: ADME, cell-based, Canis lupus familiaris, Hepatocyte
[11] = biological target: CYP3A4 (Homo sapiens, UniProt P08684); test: Inhibition of CYP3A4 (unknown origin) assessed as TDI shift ratio
[12] = Unbound clearance in dog; format: ADME, Canis lupus familiaris; conditions: in vivo
[13] = biological target: MDR1 (ABCB1, P-glycoprotein) (Homo sapiens, UniProt P08183); test: Substrate activity at human MDR1 expressed in pig LLC-PK1 cells assessed as efflux ratio of permeability across basolateral to apical over apical to basolateral membrane at 1 mM after 3 hrs by LC/MS/MS analysis; set-up: dose or concentration left out as unconfirmed
[14] = Clearance in dog; format: ADME, Canis lupus familiaris; conditions: in vivo
[15] = biological target: CYP450 (Homo sapiens, UniProt P04798+P05177+P05181+P08684+P10632+P10635+P11509+P11712+P13584+P20813+P20815+P20853+P24462+P24903+P33260+P33261+P51589+P78329+P98187+Q02928+Q08477+Q16678+Q16696+Q5TCH4+Q6VVX0+Q7Z449+Q8TAV3+Q96SQ9+Q9HB55); test: Inhibition of CYP450 (unknown origin); format: ADME, protein assay
[16] = biological target: T1, Nuclear receptor subfamily 1 group I member 2 (Homo sapiens, UniProt O75469); test: Activation of PXR (unknown origin)
T1 sequence (O75469 whole entry): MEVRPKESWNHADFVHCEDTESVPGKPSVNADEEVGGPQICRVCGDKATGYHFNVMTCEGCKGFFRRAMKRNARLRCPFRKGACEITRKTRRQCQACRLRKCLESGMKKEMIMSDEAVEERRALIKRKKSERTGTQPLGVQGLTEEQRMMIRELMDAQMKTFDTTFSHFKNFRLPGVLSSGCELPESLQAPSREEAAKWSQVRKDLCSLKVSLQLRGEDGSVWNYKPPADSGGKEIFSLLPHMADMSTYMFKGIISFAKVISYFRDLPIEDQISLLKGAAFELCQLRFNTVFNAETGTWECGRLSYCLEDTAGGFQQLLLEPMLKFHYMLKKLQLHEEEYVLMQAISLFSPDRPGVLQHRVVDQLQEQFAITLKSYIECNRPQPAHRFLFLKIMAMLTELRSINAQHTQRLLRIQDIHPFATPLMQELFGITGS

[17] = Elimination half life in dog; format: ADME, Canis lupus familiaris; conditions: in vivo, read-out: beta t1/2 (converted)
[18] = biological target: Indoleamine 2,3-dioxygenase 1 (Homo sapiens) (UniProt P14902); conditions: Blood
Indoleamine 2,3-dioxygenase 1 (Homo sapiens), sequence (P14902 whole entry, looked up): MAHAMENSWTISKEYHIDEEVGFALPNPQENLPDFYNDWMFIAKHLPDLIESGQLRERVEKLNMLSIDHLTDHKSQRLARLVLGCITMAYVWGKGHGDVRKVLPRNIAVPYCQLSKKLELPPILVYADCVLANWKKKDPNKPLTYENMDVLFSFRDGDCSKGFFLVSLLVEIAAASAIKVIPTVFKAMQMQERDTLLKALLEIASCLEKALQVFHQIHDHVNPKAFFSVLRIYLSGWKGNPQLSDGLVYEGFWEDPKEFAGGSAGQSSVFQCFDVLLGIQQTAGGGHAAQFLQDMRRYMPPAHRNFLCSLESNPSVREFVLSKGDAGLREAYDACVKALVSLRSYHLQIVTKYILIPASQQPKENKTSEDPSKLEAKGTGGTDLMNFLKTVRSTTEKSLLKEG
Description: Inhibition of IDO1 in human whole blood stimulated with IFNgamma/LPS using L-tryptophan/kynurenine as substrate incubated for 15 mins prior to IFNgamma/LPS stimulation and further incubated for 18 hrs followed by isotope labeled L-tryptophan/kynurenine addition on day 2 by LC/MS-MS analysis

Tryptophan 2,3-dioxygenase, sequence (P48775 whole entry): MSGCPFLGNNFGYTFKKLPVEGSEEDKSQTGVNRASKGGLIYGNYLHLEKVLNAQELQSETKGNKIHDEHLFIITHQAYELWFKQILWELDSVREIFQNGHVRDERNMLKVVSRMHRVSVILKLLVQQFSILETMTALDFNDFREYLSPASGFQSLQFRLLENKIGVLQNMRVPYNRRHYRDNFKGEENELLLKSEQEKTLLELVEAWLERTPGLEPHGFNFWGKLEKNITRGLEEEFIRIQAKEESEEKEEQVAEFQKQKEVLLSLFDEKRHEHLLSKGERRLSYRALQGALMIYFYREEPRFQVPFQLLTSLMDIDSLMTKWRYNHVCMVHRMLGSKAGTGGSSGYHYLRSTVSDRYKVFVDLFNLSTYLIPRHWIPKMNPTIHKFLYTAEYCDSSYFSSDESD
MDR1 (ABCB1, P-glycoprotein), sequence (P08183 whole entry): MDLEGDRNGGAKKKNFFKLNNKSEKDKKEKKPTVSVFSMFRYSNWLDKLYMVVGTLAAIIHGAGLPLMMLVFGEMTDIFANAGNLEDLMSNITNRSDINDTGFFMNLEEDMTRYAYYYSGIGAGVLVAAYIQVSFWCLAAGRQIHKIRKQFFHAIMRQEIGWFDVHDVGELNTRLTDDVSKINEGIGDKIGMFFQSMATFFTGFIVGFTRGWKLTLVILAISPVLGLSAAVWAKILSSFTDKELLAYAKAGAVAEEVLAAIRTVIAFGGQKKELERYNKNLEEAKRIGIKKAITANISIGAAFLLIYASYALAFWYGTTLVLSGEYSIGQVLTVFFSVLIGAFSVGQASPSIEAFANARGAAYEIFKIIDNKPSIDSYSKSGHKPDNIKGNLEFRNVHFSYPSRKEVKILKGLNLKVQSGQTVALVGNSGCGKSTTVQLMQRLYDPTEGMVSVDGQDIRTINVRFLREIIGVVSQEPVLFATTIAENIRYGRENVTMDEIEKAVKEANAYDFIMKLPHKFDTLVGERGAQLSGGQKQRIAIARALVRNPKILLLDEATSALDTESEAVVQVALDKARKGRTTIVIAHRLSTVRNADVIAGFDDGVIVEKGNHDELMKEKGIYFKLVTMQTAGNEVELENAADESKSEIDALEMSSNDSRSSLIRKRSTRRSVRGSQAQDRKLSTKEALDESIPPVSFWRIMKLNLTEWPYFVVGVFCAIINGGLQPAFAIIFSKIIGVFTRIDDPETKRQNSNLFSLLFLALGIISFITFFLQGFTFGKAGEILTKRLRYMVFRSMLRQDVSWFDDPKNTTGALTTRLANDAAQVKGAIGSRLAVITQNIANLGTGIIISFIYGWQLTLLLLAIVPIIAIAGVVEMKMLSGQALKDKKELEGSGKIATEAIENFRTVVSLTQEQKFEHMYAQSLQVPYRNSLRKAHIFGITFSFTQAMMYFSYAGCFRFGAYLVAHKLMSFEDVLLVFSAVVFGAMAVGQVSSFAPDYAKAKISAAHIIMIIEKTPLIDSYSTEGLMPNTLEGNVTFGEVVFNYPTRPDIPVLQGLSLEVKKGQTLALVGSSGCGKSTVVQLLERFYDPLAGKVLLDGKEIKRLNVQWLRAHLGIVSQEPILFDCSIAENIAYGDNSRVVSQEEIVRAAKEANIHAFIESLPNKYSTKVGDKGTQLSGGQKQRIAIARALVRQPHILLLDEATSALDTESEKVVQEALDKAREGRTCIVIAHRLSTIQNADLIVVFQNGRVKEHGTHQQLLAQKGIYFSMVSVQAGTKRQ
CYP3A4, sequence (P08684 whole entry): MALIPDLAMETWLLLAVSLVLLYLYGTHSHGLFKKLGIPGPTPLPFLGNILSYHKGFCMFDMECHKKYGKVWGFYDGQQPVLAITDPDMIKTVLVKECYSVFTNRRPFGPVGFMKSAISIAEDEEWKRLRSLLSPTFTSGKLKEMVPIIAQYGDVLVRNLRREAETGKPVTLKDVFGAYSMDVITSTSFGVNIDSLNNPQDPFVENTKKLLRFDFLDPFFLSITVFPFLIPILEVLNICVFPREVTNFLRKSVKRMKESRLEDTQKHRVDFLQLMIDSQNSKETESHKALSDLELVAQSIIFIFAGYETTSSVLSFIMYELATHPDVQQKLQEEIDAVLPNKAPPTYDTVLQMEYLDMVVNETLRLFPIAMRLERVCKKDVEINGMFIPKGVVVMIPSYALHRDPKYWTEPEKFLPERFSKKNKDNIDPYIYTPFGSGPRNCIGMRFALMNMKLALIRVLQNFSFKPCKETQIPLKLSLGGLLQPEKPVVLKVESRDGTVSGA

| CL free [4] | CL free [8] | Compound | further results |
| --- | --- | --- | --- |
| 48 mL/min/kg | 247 to 248 mL/min/kg | C[C@H](C(=O)Nc1ccc(F)cc1)C12CC(NC(=O)c3cccc(Cl)c3)(C1)C2 | Papp [1]: 32 ×10⁻⁶ cm/s; CL free [2]: 194 mL/min/kg; bioavailability [3]: 110%; IC50 [5]: > 10 µM; clearance [6]: 5 mL/min/kg; half-life [7]: 3.7 h |
| 56 mL/min/kg | 295 mL/min/kg | C[C@H](C(=O)Nc1ccc(F)cc1)C12CC(NC(=O)c3ccc(F)c(Cl)c3)(C1)C2 | – |
| 34 mL/min/kg | 133 mL/min/kg | C[C@H](C(=O)Nc1ccc(Cl)nc1)C12CC(NC(=O)c3cccc(Cl)c3)(C1)C2 | – |
| 47 mL/min/kg | 150 mL/min/kg | C[C@H](C(=O)Nc1ccc(Cl)cc1)C12CC(NC(=O)c3cccc(Cl)c3)(C1)C2 | – |
| 82 mL/min/kg | 644 mL/min/kg | C[C@H](C(=O)Nc1ccc(F)cc1)C12CC(NC(=O)c3cccc(Cl)n3)(C1)C2 | – |
| 2357 mL/min/kg | 4457 mL/min/kg | C[C@H](C(=O)Nc1ccc(F)cc1)C12CC(NC(=O)OC3CCCC3)(C1)C2 | – |
| 591 mL/min/kg | 765 mL/min/kg | C[C@H](C(=O)Nc1ccc(F)cc1)C12CC(NC(=O)c3cccc(Cl)c3F)(C1)C2 | – |
| 723 mL/min/kg | 549 mL/min/kg | C[C@H](C(=O)Nc1ccc(F)cc1)C12CC(Nc3ncnc4ccc(F)cc34)(C1)C2 | – |
| 56 mL/min/kg | 441 mL/min/kg | C[C@H](C(=O)Nc1ccc(F)cc1)C12CC(NC(=O)c3cc(F)cc(Cl)c3)(C1)C2 | – |
| 51 mL/min/kg | 197 mL/min/kg | CC(C)(C(=O)Nc1ccc(F)cc1)C12CC(NC(=O)c3cccc(Cl)c3)(C1)C2 | – |
| 52 mL/min/kg | 195 mL/min/kg | C[C@H](C(=O)Nc1ccc(F)cc1)C12CC(NC(=O)c3ccc(F)c(F)c3)(C1)C2 | Papp [1]: 29 ×10⁻⁶ cm/s; CL free [2]: 37 mL/min/kg; bioavailability [3]: 83%; bioavailability [9]: 79%; IC50 [5]: > 10 µM; clearance [6]: 2 mL/min/kg; CL free [10]: 121 mL/min/kg; IC50 shift [11]: 1; CL free [12]: 22 mL/min/kg; efflux ratio at 3 h [13]: 1.3; clearance [14]: 1.1 mL/min/kg; IC50 [15]: > 50 µM; EC50 [16]: > 30 µM; half-life [7]: 11 h; half-life [17]: 36 h; IC90 [18]: 0.912 µM |
| 369 mL/min/kg | 2925 mL/min/kg | CC(C)OC(=O)NC12CC([C@H](C)C(=O)Nc3ccc(F)cc3)(C1)C2 | – |
| – | 1935 mL/min/kg | O=C(Nc1ccc(C2(C(=O)Nc3ccc(F)cc3)CCC2)cc1)c1cccc(Cl)c1 | CL free [2]: 4371 mL/min/kg |
| 1544 mL/min/kg | 1494 mL/min/kg | C[C@H](C(=O)Nc1ccc(F)cc1)C12CC(Nc3ncnc4ccccc34)(C1)C2 | – |
